Measured values taken from paper PMC8330742, “New benzothieno[2,3-c]pyridines as non-steroidal CYP17 inhibitors: design, synthesis, anticancer screening, apoptosis induction, and in silico ADME profile studies” (Journal of Enzyme Inhibition and Medicinal Chemistry, 2021).
Read-outs that look alike come from different tables or passages of the source.

Assays:
[1] = tested on: MDA-MB-468; test: NCI-60 SRB screen; assay type: cell-based, human; conditions: Homo sapiens, single dose 10^−5 M, read-out: Growth inhibition (%)
[2] = tested on: DU-145; test: NCI-60 SRB screen; assay type: cell-based, human; conditions: Homo sapiens, single dose 10^−5 M, read-out: Growth inhibition (%)
[3] = tested on: PC-3; test: NCI-60 SRB screen; assay type: cell-based, human; conditions: Homo sapiens, single dose 10^−5 M, read-out: Growth inhibition (%)
[4] = tested on: UACC-257; test: NCI-60 SRB screen; assay type: cell-based, human; conditions: Homo sapiens, single dose 10^−5 M, read-out: Growth inhibition (%)
[5] = tested on: OVCAR-5; test: NCI-60 SRB screen; assay type: cell-based, human; conditions: Homo sapiens, single dose 10^−5 M, read-out: Growth inhibition (%)
[6] = tested on: A498; test: NCI-60 SRB screen; assay type: cell-based, human; conditions: Homo sapiens, single dose 10^−5 M, read-out: Growth inhibition (%)
[7] = tested on: 786-0; test: NCI-60 SRB screen; assay type: cell-based; conditions: Homo sapiens, single dose 10^−5 M, read-out: Growth inhibition (%)
[8] = tested on: MCF7; test: NCI-60 SRB screen; assay type: cell-based, human; conditions: Homo sapiens, read-out: Growth inhibition (%)
[9] = tested on: BT-549; test: NCI-60 SRB screen; assay type: cell-based, human; conditions: Homo sapiens, single dose 10^−5 M, read-out: Growth inhibition (%)
[10] = tested on: T-47D; test: NCI-60 SRB screen; assay type: cell-based, human; conditions: Homo sapiens, T47D, single dose 10^−5 M, read-out: Growth inhibition (%)
[11] = tested on: RPMI-8226; test: NCI-60 SRB screen; assay type: cell-based; conditions: Homo sapiens, single dose 10^−5 M, read-out: Growth inhibition (%)
[12] = tested on: MDA-MB-231/ATCC; test: NCI-60 SRB screen; assay type: cell-based, human; conditions: Homo sapiens, single dose 10^−5 M, read-out: Growth inhibition (%)
[13] = tested on: U251; test: NCI-60 SRB screen; assay type: cell-based, human; conditions: Homo sapiens, U-251; single dose 10^−5 M; U251, CNS cancer; read-out: Growth inhibition (%)
[14] = tested on: SNB-75; test: NCI-60 SRB screen; assay type: cell-based, human; conditions: Homo sapiens; single dose 10^−5 M; SNB-75, CNS cancer; read-out: Growth inhibition (%)
[15] = tested on: SNB-19; test: NCI-60 SRB screen; assay type: cell-based; conditions: Homo sapiens; single dose 10^−5 M; SNB-19, CNS cancer; read-out: Growth inhibition (%)
[16] = tested on: SF-539; test: NCI-60 SRB screen; assay type: cell-based, human; conditions: Homo sapiens; single dose 10^−5 M; SF-539, CNS cancer; read-out: Growth inhibition (%)
[17] = UACC-257, UACC-275 (so in the source)
[18] = single dose 10^−5 M, MCF-7, Breast cancer

SMILES | inhibition at 10 µM ([1]; MDA-MB-468) [%] | inhibition at 10 µM ([2]; DU-145) [%] | inhibition at 10 µM ([3]; PC-3) [%] | inhibition at 10 µM [4, 17] [%] | inhibition at 10 µM ([5]; OVCAR-5) [%] | inhibition at 10 µM ([6]; A498) [%] | inhibition at 10 µM ([7]; 786-0) [%] | inhibition at 10 µM ([8]; MCF-7, single dose 10^−5 M) [%] | inhibition at 10 µM ([9]; BT-549) [%] | inhibition at 10 µM [10] [%] | melting point [°C] | inhibition at 10 µM ([11]; RPMI-8226) [%] | inhibition at 10 µM ([12]; MDA-MB-231, MDAMB231/ATCC) [%] | inhibition at 10 µM ([1]; MDA-MB-468, Breast cancer) [%] | inhibition at 10 µM ([2]; DU-145, Prostate cancer) [%] | inhibition at 10 µM ([3]; PC-3, Prostate cancer) [%] | inhibition at 10 µM ([4]; UACC-257, Melanoma) [%] | inhibition at 10 µM [13] [%] | inhibition at 10 µM [14] [%] | inhibition at 10 µM ([5]; OVCAR-5, Ovarian cancer) [%] | further results
O=C1NC(c2cccc([N+](=O)[O-])c2)c2sc3c(F)cccc3c2C1Cl (stereo not drawn) [Compound 4d, 4-Chloro-8-fluoro-1-(3-nitrophenyl)-1,2-dihydro[1]benzothieno[2,3-c] pyridine-3(4H)-one] | -8.27 | -8.57 | 3.8 | -15.8 | -3.92 | -0.03 | -11.2 | 8.44 | 3.62 | 8.7 | 160 to 162 | 9.61 | 5.22 | – | – | – | – | – | – | – | –
N#CC1C(=O)NC(c2cccc([N+](=O)[O-])c2)c2sc3c(F)cccc3c21 (stereo not drawn) [Compound 5d, 4-Cyano-8-fluoro-1-(3-nitrophenyl)-1,2-dihydro[1]benzothieno[2,3-c] pyridin-3(4H)-one] | -6.48 | -10 | 13.2 | -19 | 1.54 | 17.3 | -6.8 | 15.1 | 8.35 | 20.1 | 180 to 182 | 14 | 19.2 | – | – | – | – | – | – | – | –
CCN1CCN(C2C(=O)NC(c3cccc([N+](=O)[O-])c3)c3sc4c(F)cccc4c32)CC1 (stereo not drawn) [Compound 6a, 4-(4-Ethylpiperazin-1-yl)-8-fluoro-1-(3-nitrophenyl)-1,2-dihydro[1]benzo thieno[2,3-c]pyridin-3(4H)-one] | -7.69 | -10.8 | 9.37 | -14.7 | -3.55 | 0.35 | -15 | 0.6 | -0.58 | -1.25 | 240 to 241 | 4.93 | -0.79 | – | – | – | – | – | – | – | –
O=C1NC(c2cccc([N+](=O)[O-])c2)c2sc3c(F)cccc3c2C1N1CCOCC1 (stereo not drawn) [Compound 6b, 8-Fluoro-4-morpholino-1(3-nitrophenyl)-1,2-dihydro[1]benzothieno[2,3-c]pyridin-3(4H)-one] | -3.26 | -9.4 | 10.4 | -10.7 | -6.35 | 13.5 | -11.1 | 10.3 | 1.66 | 15.4 | 250 to 251 | 14.4 | 7.92 | – | – | – | – | – | – | – | –
O=C1NC(c2cccc([N+](=O)[O-])c2)c2sc3c(F)cccc3c2C1N1CCCCC1 (stereo not drawn) [Compound 6c, 8-Fluoro-1-(3-nitrophenyl)-4-(piperidin-1-yl)-1,2-dihydro[1]benzothieno [2,3-c]pyridin-3(4H)-one] | -9.31 | -9.9 | 8.67 | -6.77 | -1.56 | 7.34 | -6.36 | 10.2 | 1.61 | 8.12 | – | 5.15 | 0.28 | – | – | – | – | – | – | – | –
O=[N+]([O-])c1cccc(C2NC(Cl)=C(Cl)c3c2sc2c(F)cccc32)c1 (stereo not drawn) [Compound 7a, 3,4-Dichloro-8-fluoro-1-(3-nitrophenyl)-1,2-dihydro[1]benzothieno[2,3-c] pyridine] | -4.71 | -4.75 | 3.11 | -7.18 | 3.21 | 3.36 | -7.16 | 5.05 | 0.77 | 17.7 | 120 to 122 | 11.5 | 8.09 | – | – | – | – | – | – | – | –
CCN1CCN(C2=C(Cl)c3c(sc4c(F)cccc34)C(c3cccc([N+](=O)[O-])c3)N2)CC1 (stereo not drawn) [Compound 8a, 4-Chloro-3–(4-ethylpiperzin-1-yl)-8-fluoro-1-(3-nitrophenyl)-1,2-dihydro [1]benzothieno[2,3-c]pyridine] | – | – | – | – | – | – | – | – | – | – | – | – | – | -9.64 | -7.24 | 7.7 | -7.62 | 6.16 | 11.8 | 1.9 | inhibition at 10 µM ([6]; A498, Renal cancer): 0.93%; inhibition at 10 µM ([7]; 786-0, Renal cancer): -7.31%; inhibition at 10 µM [15]: 1.26%; inhibition at 10 µM [8, 18]: 4.08%; inhibition at 10 µM ([9]; BT-549, Breast cancer): 9.38%; inhibition at 10 µM ([10]; Breast cancer): 11.1%; inhibition at 10 µM [16]: 4.31%; inhibition at 10 µM ([11]; RPMI-8226, Leukaemia): 15.4%; inhibition at 10 µM ([12]; MDA-MB 231/ATCC, Breast cancer): 12%
CCN1CCN(C2=C(C#N)c3c(sc4c(F)cccc34)C(c3cccc([N+](=O)[O-])c3)N2)CC1 (stereo not drawn) [Compound 8d, 4-Cyano-3-(4-ethylpiperazin-1-yl)-8-fluoro-1-(3-nitrophenyl)-1,2-dihydro [1]benzothieno[2,3-c]pyridine] | – | – | – | – | – | – | – | – | – | – | – | – | – | -2.69 | -11.2 | 9.1 | -23.7 | 0.9 | 8.49 | -4.1 | inhibition at 10 µM ([6]; A498, Renal cancer): 12.1%; inhibition at 10 µM ([7]; 786-0, Renal cancer): -9.68%; inhibition at 10 µM [15]: -1.27%; inhibition at 10 µM [8, 18]: 9.44%; inhibition at 10 µM ([9]; BT-549, Breast cancer): 1.51%; inhibition at 10 µM ([10]; Breast cancer): 22.3%; inhibition at 10 µM [16]: 6.11%; inhibition at 10 µM ([11]; RPMI-8226, Leukaemia): 1.72%; inhibition at 10 µM ([12]; MDA-MB 231/ATCC, Breast cancer): 19.8%
N#CC1=C(N2CCOCC2)NC(c2cccc([N+](=O)[O-])c2)c2sc3c(F)cccc3c21 (stereo not drawn) [Compound 8e, 4-Cyano-3-(4-morpholino)-8-fluoro-1-(3-nitrophenyl)-1,2-dihydro [1]benzothieno[2,3-c]pyridine] | – | – | – | – | – | – | – | – | – | – | – | – | – | -11 | -12.3 | 12.3 | -6.7 | -2.2 | 7.28 | 0.99 | inhibition at 10 µM ([6]; A498, Renal cancer): 3.17%; inhibition at 10 µM ([7]; 786-0, Renal cancer): -9.79%; inhibition at 10 µM [15]: -0.92%; inhibition at 10 µM [8, 18]: -1.68%; inhibition at 10 µM ([9]; BT-549, Breast cancer): 1.14%; inhibition at 10 µM ([10]; Breast cancer): -4.79%; inhibition at 10 µM [16]: 3.33%; inhibition at 10 µM ([11]; RPMI-8226, Leukaemia): 6.66%; inhibition at 10 µM ([12]; MDA-MB 231/ATCC, Breast cancer): 13.4%
N#CC1=C(Nc2ccccc2F)NC(c2cccc([N+](=O)[O-])c2)c2sc3c(F)cccc3c21 (stereo not drawn) [Compound 10, 4-Cyano-8-fluoro-3((2-fluorophenyl)amino)-1–(3-nitrophenyl)-1,2-dihydro[1]benzothieno[2,3-c]pyridine] | – | – | – | – | – | – | – | – | – | – | – | – | – | -7.35 | -8.61 | 7.8 | -23.2 | -9.9 | 10.1 | -3.49 | inhibition at 10 µM ([6]; A498, Renal cancer): 3.94%; inhibition at 10 µM ([7]; 786-0, Renal cancer): -12.3%; inhibition at 10 µM [15]: -3.45%; inhibition at 10 µM [8, 18]: 4.92%; inhibition at 10 µM ([9]; BT-549, Breast cancer): 1.04%; inhibition at 10 µM ([10]; Breast cancer): -2.94%; inhibition at 10 µM [16]: 6.04%; inhibition at 10 µM ([11]; RPMI-8226, Leukaemia): 1.46%; inhibition at 10 µM ([12]; MDA-MB 231/ATCC, Breast cancer): 17.4%
